This is an account of results in the supplement of paper PMC10307832.

What all share (experiment): relative viability (nuclei count vs DMSO), 5 days (fraction); higher = more cells survive
Compound in the experiment “Serdemetan + Decitabine”: c1ccc2c(CCNc3ccc(Nc4ccncc4)cc3)c[nH]c2c1 [Serdemetan] + Nc1ncn([C@H]2C[C@H](O)[C@@H](CO)O2)c(=O)n1 [Decitabine] (partner 2 µM)
The essentials: (§1)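 Lung cancer cell lines, seeded in 1536-well plates, were treated the following day by pin tool with a single drug or with five library-drug doses (not always all listed) in √10 steps on top of a fixed anchor-drug dose. Cells were fixed and nuclei stained in one step after 5 days, and nuclei were counted. Relative viability is the nuclei count for treated wells divided by that for vehicle wells, reported as medians of duplicate plates.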

Compound in the experiment “Selisistat + Vorinostat”: C1CC(C2=C(C1)C3=C(N2)C=CC(=C3)Cl)C(=O)N [Selisistat] + O=C(CCCCCCC(=O)Nc1ccccc1)NO [Vorinostat] (partner 1 µM)
The essentials:
as §1

Compound in the experiment “Serdemetan + Vorinostat”: c1ccc2c(CCNc3ccc(Nc4ccncc4)cc3)c[nH]c2c1 [Serdemetan] + O=C(CCCCCCC(=O)Nc1ccccc1)NO [Vorinostat] (partner 1 µM)
The essentials:
as §1

Compound in the experiment “Serdemetan + Dasatinib”: c1ccc2c(CCNc3ccc(Nc4ccncc4)cc3)c[nH]c2c1 [Serdemetan] + Cc1nc(Nc2ncc(C(=O)Nc3c(C)cccc3Cl)s2)cc(N2CCN(CCO)CC2)n1 [Dasatinib] (partner 0.075 µM)
The gist of the method:
as §1

SW 900: the relative viability came out at 0.398 in the experiment with Serdemetan + Decitabine (first compound 0.04 µM); 0.473 with Serdemetan + Decitabine (first compound 0.1265 µM); 0.433 with Serdemetan + Decitabine (first compound 0.4 µM); 0.331 in the experiment with Serdemetan + Decitabine (first compound 1.265 µM); 0.284 with Serdemetan + Decitabine (first compound 4 µM); 0.684 in the experiment with Selisistat + Vorinostat (first compound 0.4 µM). The relative viability in the experiment with Selisistat + Vorinostat (first compound 1.265 µM) was determined as 0.705; with Selisistat + Vorinostat (first compound 4 µM) it was 0.518; with Selisistat + Vorinostat (first compound 12.65 µM), 0.747; with Selisistat + Vorinostat (first compound 40 µM), 0.781; with Serdemetan + Vorinostat (first compound 0.04 µM), 0.485; with Serdemetan + Vorinostat (first compound 0.1265 µM), 0.569. Further, the relative viability with Serdemetan + Vorinostat (first compound 0.4 µM) was found to be 0.53; with Serdemetan + Vorinostat (first compound 1.265 µM), 0.393; in the experiment with Serdemetan + Vorinostat (first compound 4 µM) it was 0.455; in the experiment with Serdemetan + Dasatinib (first compound 0.04 µM), 0.502; with Serdemetan + Dasatinib (first compound 0.1265 µM) it was 0.471; with Serdemetan + Dasatinib (first compound 0.4 µM), 0.484. For the same cell line, the figures for the relative viability with Serdemetan + Dasatinib (first compound 1.265 µM) and in the experiment with Serdemetan + Dasatinib (first compound 4 µM) were 0.385 and 0.345, respectively.
For NCI-H1395, the relative viability turned out to be 0.772 with Serdemetan + Decitabine (first compound 0.04 µM); 0.694 with Serdemetan + Decitabine (first compound 0.1265 µM); 0.687 in the experiment with Serdemetan + Decitabine (first compound 0.4 µM); 0.637 with Serdemetan + Decitabine (first compound 1.265 µM); 0.57 with Serdemetan + Decitabine (first compound 4 µM); 0.827 with Selisistat + Vorinostat (first compound 0.4 µM). The relative viability with Selisistat + Vorinostat (first compound 1.265 µM) is 0.671; with Selisistat + Vorinostat (first compound 12.65 µM), 0.536; with Selisistat + Vorinostat (first compound 40 µM) it was 0.702; with Serdemetan + Vorinostat (first compound 0.04 µM), 0.574; in the experiment with Serdemetan + Vorinostat (first compound 0.1265 µM), 0.848; with Serdemetan + Vorinostat (first compound 0.4 µM), 0.696. Moreover, the relative viability with Serdemetan + Vorinostat (first compound 1.265 µM) is 0.526; in the experiment with Serdemetan + Vorinostat (first compound 4 µM) it was 0.508; with Serdemetan + Dasatinib (first compound 0.04 µM), 0.396; with Serdemetan + Dasatinib (first compound 0.1265 µM), 0.42; with Serdemetan + Dasatinib (first compound 0.4 µM), 0.481; with Serdemetan + Dasatinib (first compound 1.265 µM) it was 0.406. The relative viability with Serdemetan + Dasatinib (first compound 4 µM) came out at 0.281.
For the cell line NCI-H358, the relative viability came to 0.186 with Serdemetan + Decitabine (first compound 0.04 µM); 0.234 with Serdemetan + Decitabine (first compound 0.1265 µM); 0.221 with Serdemetan + Decitabine (first compound 0.4 µM); 0.18 in the experiment with Serdemetan + Decitabine (first compound 1.265 µM); 0.195 with Serdemetan + Decitabine (first compound 4 µM); 0.766 in the experiment with Selisistat + Vorinostat (first compound 0.4 µM). Further, the relative viability with Selisistat + Vorinostat (first compound 1.265 µM) was determined as 0.636; in the experiment with Selisistat + Vorinostat (first compound 4 µM) it was 0.686; with Selisistat + Vorinostat (first compound 12.65 µM), 0.778; with Selisistat + Vorinostat (first compound 40 µM) it was 0.8; in the experiment with Serdemetan + Vorinostat (first compound 0.04 µM), 0.677; with Serdemetan + Vorinostat (first compound 0.1265 µM), 0.689. The relative viability with Serdemetan + Vorinostat (first compound 0.4 µM) is 0.612; with Serdemetan + Vorinostat (first compound 1.265 µM), 0.402; with Serdemetan + Vorinostat (first compound 4 µM) it was 0.461; in the experiment with Serdemetan + Dasatinib (first compound 0.04 µM), 0.185; with Serdemetan + Dasatinib (first compound 0.1265 µM), 0.167; with Serdemetan + Dasatinib (first compound 0.4 µM), 0.161. The relative viability in the experiment with Serdemetan + Dasatinib (first compound 1.265 µM) worked out at 0.146; with Serdemetan + Dasatinib (first compound 4 µM), 0.17.
Consider NCI-H838, for which the relative viability with Serdemetan + Decitabine (first compound 0.04 µM) turned out to be 0.437; in the experiment with Serdemetan + Decitabine (first compound 0.1265 µM), 0.459; in the experiment with Serdemetan + Decitabine (first compound 0.4 µM) it was 0.404; with Serdemetan + Decitabine (first compound 1.265 µM), 0.386; with Serdemetan + Decitabine (first compound 4 µM), 0.451; in the experiment with Selisistat + Vorinostat (first compound 0.4 µM) it was 0.721. For the same cell line, the relative viability with Selisistat + Vorinostat (first compound 1.265 µM) came out at 0.806; in the experiment with Selisistat + Vorinostat (first compound 4 µM), 0.81; with Selisistat + Vorinostat (first compound 12.65 µM), 0.764; with Selisistat + Vorinostat (first compound 40 µM) it was 0.773; in the experiment with Serdemetan + Vorinostat (first compound 0.04 µM), 0.729; in the experiment with Serdemetan + Vorinostat (first compound 0.1265 µM), 0.69. For the same cell line, the relative viability worked out at 0.684 in the experiment with Serdemetan + Vorinostat (first compound 0.4 µM); 0.728 in the experiment with Serdemetan + Vorinostat (first compound 1.265 µM); 0.696 with Serdemetan + Vorinostat (first compound 4 µM); 0.291 in the experiment with Serdemetan + Dasatinib (first compound 0.04 µM); 0.345 with Serdemetan + Dasatinib (first compound 0.1265 µM); 0.272 with Serdemetan + Dasatinib (first compound 0.4 µM). For the same cell line, the relative viability in the experiment with Serdemetan + Dasatinib (first compound 1.265 µM) is 0.276; with Serdemetan + Dasatinib (first compound 4 µM), 0.273.
